# Laboratory results from ChEMBL document CHEMBL5252643, “Jozibrevine D from Ancistrocladus ileboensis, the fifth alkaloid in a series of six possible atropo-diastereomeric naphthylisoquinoline dimers, showing antiparasitic and antileukemic activities” (Bioorg Med Chem Lett, 2023).
# How the values were obtained:
# Plasmodium falciparum = experiment: Antiplasmodial activity against Plasmodium falciparum NF54; type: functional, organism-based
# Trypanosoma cruzi = experiment: Antitrypanosomal activity against Trypanosoma cruzi; type: functional, organism-based
# [1] = test system: Trypanosoma brucei rhodesiense; experiment: Antitrypanosomal activity against Trypanosoma brucei rhodesiense; type: functional, organism-based
# Leishmania donovani = experiment: Antileishmanial activity against Leishmania donovani; type: functional, organism-based
# [2] = Cytotoxicity against rat L6 cells assessed as reduction in cell viability by resazurin dye based assay; type: toxicity
# [3] = Selectivity index, ratio of IC50 for rat L6 cells to IC50 for Plasmodium falciparum NF54; type: toxicity; details: L6 cells versus Plasmodium falciparum NF54, read-out: Ratio IC50
# CCRF-CEM = experiment: Cytotoxicity against human CCRF-CEM cells; type: functional, cell-based
# ADR5000 cell line = experiment: Cytotoxicity against multidrug resistant human CEM/ADR5000 cells; type: functional, cell-based
# [4] = Selectivity ratio of IC50 for human CEM/ADR5000 cells to IC50 for human CCRF-CEM cells; type: functional
Structure (SMILES),IC50 (Plasmodium falciparum) [µM],IC50 (Trypanosoma cruzi) [µM],IC50 [1] [µM],IC50 (Leishmania donovani) [µM],IC50 [2] [µM],selectivity ratio [3],IC50 (CCRF-CEM) [µM],IC50 (ADR5000 cell line) [µM],Ratio IC50 [4]
COc1cccc2c(-c3ccc4c(c3O)[C@@H](C)N[C@H](C)C4)c(C)c(-c3c(C)c(-c4ccc5c(c4O)[C@@H](C)N[C@H](C)C5)c4cccc(OC)c4c3O)c(O)c12 (stereo in doubt; 4e),0.137,22.2,0.527,105,6.22,45.4,11.5,16.6,1.45
COc1cccc2c(-c3ccc4c(c3O)[C@@H](C)N[C@H](C)C4)c(C)c(-c3c(C)c(-c4ccc5c(c4O)[C@@H](C)N[C@H](C)C5)c4cccc(OC)c4c3O)c(O)c12 (stereo in doubt; 4d),–,–,–,–,–,–,5.35,7.59,1.42
